Data taken from the NIST ThermoML archive (doi:10.1016/j.jct.2016.01.028).

Experiment: xn = mol fraction of the nth substance listed
Conditions: 102 kPa, Liquid; for speed of sound: Frequency=5 MHz, Single path-length method; for mass density: Vibrating tube method

CCCC(=O)[O-].C[NH2+]CCO [N-methyl-2-hydroxyethylammonium butanoate] + O
Conditions | mass density [kg/m3] | speed of sound [m/s]
298.15 K, x1 = 0.0199 | 1016.9 | 1645.6
298.15 K, x1 = 0.0497 | 1035 | 1762.6
298.15 K, x1 = 0.1005 | 1040.8 | 1773.4
298.15 K, x1 = 0.196 | 1050.5 | 1739.5
298.15 K, x1 = 0.3008 | 1052.5 | 1732
298.15 K, x1 = 0.4005 | 1049.1 | 1693.9
298.15 K, x1 = 0.509 | 1046.8 | 1674.1
298.15 K, x1 = 0.5968 | 1045 | 1659.6
298.15 K, x1 = 0.8069 | 1041.3 | 1630.4
298.15 K, x1 = 1 | 1035.3 | 1562.9
303.15 K, x1 = 0.0199 | 1013.1 | 1646.1
303.15 K, x1 = 0.0497 | 1032.4 | 1755.1
303.15 K, x1 = 0.1005 | 1037.9 | 1763.6
303.15 K, x1 = 0.196 | 1047.4 | 1725.4
303.15 K, x1 = 0.3008 | 1049.4 | 1717
303.15 K, x1 = 0.4005 | 1046 | 1678.1
303.15 K, x1 = 0.509 | 1043.6 | 1658.3
303.15 K, x1 = 0.5968 | 1041.7 | 1643.9
303.15 K, x1 = 0.8069 | 1038 | 1614.5
303.15 K, x1 = 1 | 1031.9 | 1548
308.15 K, x1 = 0.0199 | 1009.2 | 1646.7
308.15 K, x1 = 0.0497 | 1029.8 | 1747.6
308.15 K, x1 = 0.1005 | 1035 | 1753.8
308.15 K, x1 = 0.196 | 1044.4 | 1711.3
308.15 K, x1 = 0.3008 | 1046.3 | 1701.9
308.15 K, x1 = 0.4005 | 1042.8 | 1662.3
308.15 K, x1 = 0.509 | 1040.4 | 1642.4
308.15 K, x1 = 0.5968 | 1038.5 | 1628.1
308.15 K, x1 = 0.8069 | 1034.7 | 1598.6
308.15 K, x1 = 1 | 1028.6 | 1529.7
313.15 K, x1 = 0.0199 | 1005.3 | 1647.3
313.15 K, x1 = 0.0497 | 1027.2 | 1740
313.15 K, x1 = 0.1005 | 1032 | 1744
313.15 K, x1 = 0.196 | 1041.3 | 1697.2
313.15 K, x1 = 0.3008 | 1043.2 | 1686.8
313.15 K, x1 = 0.4005 | 1039.6 | 1646.5
313.15 K, x1 = 0.509 | 1037.2 | 1626.6
313.15 K, x1 = 0.5968 | 1035.3 | 1612.4
313.15 K, x1 = 0.8069 | 1031.4 | 1582.7
313.15 K, x1 = 1 | 1025.2 | 1511.9
318.15 K, x1 = 0.0199 | 1001.5 | 1647.8
318.15 K, x1 = 0.0497 | 1024.6 | 1732.5
318.15 K, x1 = 0.1005 | 1029.1 | 1734.2
318.15 K, x1 = 0.196 | 1038.3 | 1683.1
318.15 K, x1 = 0.3008 | 1040.1 | 1671.7
318.15 K, x1 = 0.4005 | 1036.4 | 1630.6
318.15 K, x1 = 0.509 | 1034 | 1610.7
318.15 K, x1 = 0.5968 | 1032.1 | 1596.6
318.15 K, x1 = 0.8069 | 1028.1 | 1566.8
318.15 K, x1 = 1 | 1021.9 | 1499.4
323.15 K, x1 = 0.0199 | 997.6 | 1648.4
323.15 K, x1 = 0.0497 | 1022 | 1725
323.15 K, x1 = 0.1005 | 1026.2 | 1724.5
323.15 K, x1 = 0.196 | 1035.2 | 1669
323.15 K, x1 = 0.3008 | 1036.9 | 1656.6
323.15 K, x1 = 0.4005 | 1033.3 | 1614.8
323.15 K, x1 = 0.509 | 1030.9 | 1594.8
323.15 K, x1 = 0.5968 | 1028.9 | 1580.8
323.15 K, x1 = 0.8069 | 1024.9 | 1550.9
323.15 K, x1 = 1 | 1018.5 | 1481.3
328.15 K, x1 = 0.0199 | 993.7 | 1648.9
328.15 K, x1 = 0.0497 | 1019.4 | 1717.5
328.15 K, x1 = 0.1005 | 1023.2 | 1714.7
328.15 K, x1 = 0.196 | 1032.2 | 1654.9
328.15 K, x1 = 0.3008 | 1033.8 | 1641.6
328.15 K, x1 = 0.4005 | 1030.1 | 1599
328.15 K, x1 = 0.509 | 1027.7 | 1579
328.15 K, x1 = 0.5968 | 1025.6 | 1565.1
328.15 K, x1 = 0.8069 | 1021.6 | 1535
328.15 K, x1 = 1 | 1015.2 | 1467.2
333.15 K, x1 = 0.0199 | 989.9 | 1649.5
333.15 K, x1 = 0.0497 | 1016.8 | 1709.9
333.15 K, x1 = 0.1005 | 1020.3 | 1704.9
333.15 K, x1 = 0.196 | 1029.1 | 1640.8
333.15 K, x1 = 0.3008 | 1030.7 | 1626.5
333.15 K, x1 = 0.4005 | 1026.9 | 1583.1
333.15 K, x1 = 0.509 | 1024.5 | 1563.1
333.15 K, x1 = 0.5968 | 1022.4 | 1549.3
333.15 K, x1 = 0.8069 | 1018.3 | 1519.1
333.15 K, x1 = 1 | 1011.9 | 1451.2
